Data published in patent publication US12643887B2, “Heterocyclic derivatives with cardiomyocyte proliferation activity for treatment of heart diseases” (Tongji University, priority 2019, dated 2026).

Key:
[1] = tested on: Neonatal Rat Ventricular Myocytes (NRVMs); test: Myocyte proliferation assay (EdU assay) in neonatal rat ventricular myocytes; assay type: cell-based; details: growth relative to blank myocyte growth without compound added; for Avg 1 uM (average myocyte proliferation): compound 1 uM; for Avg 3 uM (average myocyte proliferation): compound 3 uM
In short: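 Neonatal rat ventricular myocytes, fibroblast-depleted by preplating, serum-starved 24 h (2% FBS/ITS), then given compound at 10, 3 or 1 uM in 6% FBS medium for 36 h before 12 h EdU labelling. Fixed cells stained for EdU (Click-iT), ab8295 primary antibody and DAPI; quantified by high-content confocal imaging.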

human DYRK1A = target: T1, human DYRK1A (Homo sapiens, UniProt Q13627); test: DYRK1A enzyme assay (ADP-Glo); assay type: biochemical; details: ADP-Glo, ATP 60 μM; read-out: DYRK1A IC50
T1 construct: Recombinant full-length DYRK1A (expressed in E. Coli cells with an N-terminal GST tag); GST (N); purchased SignalChem D09-10G; host or cells: E. coli
In short: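 GST-tagged full-length human DYRK1A (E. coli, 3 nM) preincubated 30 min at 25 °C with compound in 40 mM Tris pH 7.5, 20 mM MgCl2, 0.1 mg/ml BSA, 50 μM DTT, then reacted 60 min with 20 μM DYRKtide and 60 μM ATP. ADP-Glo luminescence; IC50 by four-parameter logistic fit.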

| IC50 (human DYRK1A) [µM] | SMILES | Avg 1 uM (average myocyte proliferation) [1] | Avg 3 uM (average myocyte proliferation) [1] | Avg 10 uM (average myocyte proliferation) ([1]; compound 10 uM) |
| --- | --- | --- | --- | --- |
| 1 to 10 | CN(CC1CC1)C1=N/C(=C\c2ccc3ncsc3c2)C(=O)N1 [Example 33, (Z)-5-(benzo[d]thiazol-6-ylmethylene)-2-((cyclopropylmethyl)(methyl)amino)-3,5-dihydro-4H-imidazol-4-one] | * (<10% growth relative to blank myocyte growth without compound added.) | * (<10% growth relative to blank myocyte growth without compound added.) | – |
| 0.1 to 1 | CN(C1=N/C(=C\c2ccc3c(c2)OCCO3)C(=O)N1)c1ccc2ncsc2c1 [Example 84, (Z)-2-(benzo[d]thiazol-6-yl(methyl)amino)-5-((2,3-dihydrobenzo[b][1,4]dioxin-6-yl)methylene)-3,5-dihydro-4H-imidazol-4-one] | * (<10% growth relative to blank myocyte growth without compound added.) | ** (10%-50%) | – |
| > 10 | O=C1NC(N(CC2CC2)c2ccc3ncsc3c2)=N/C1=C\c1ccc2ncsc2c1 [Example 105, (Z)-2-(benzo[d]thiazol-6-yl(cyclopropylmethyl)amino)-5-(benzo[d]thiazol-6-ylmethylene)-3,5-dihydro-4H-imidazol-4-one] | ** (10%-50%) | ** (10%-50%) | – |

The remaining lines, values behind:

| SMILES | IC50 (human DYRK1A) [µM] | Avg 1 uM (average myocyte proliferation) [1] | Avg 3 uM (average myocyte proliferation) [1] | Avg 10 uM (average myocyte proliferation) ([1]; compound 10 uM) |
| --- | --- | --- | --- | --- |
| Cn1ncc2ccc(/C=C3\N=C(Nc4ccc5ncsc5c4)NC3=O)cc21 [Example 80, (Z)-2-(benzo[d]thiazol-6-ylamino)-5-((1-methyl-1H-indazol-6-yl)methylene)-3,5-dihydro-4H-imidazol-4-one] | > 10 | * (<10% growth relative to blank myocyte growth without compound added.) | * (<10% growth relative to blank myocyte growth without compound added.) | – |
| O=C1NC(Nc2ccc3[nH]ccc3c2)=N/C1=C\c1ccc2ncsc2c1 [Example 69, (Z)-2-((1H-indol-5-yl)amino)-5-(benzo[d]thiazol-6-ylmethylene)-3,5-dihydro-4H-imidazol-4-one] | < 0.1 | ** (10%-50%) | * (<10% growth relative to blank myocyte growth without compound added.) | – |
| CC(C)NC1=N/C(=C\c2ccc3scnc3c2)C(=O)N1 [Example 49, (Z)-5-(benzo[d]thiazol-5-ylmethylene)-2-(isopropylamino)-3,5-dihydro-4H-imidazol-4-one] | > 10 | * (<10% growth relative to blank myocyte growth without compound added.) | ** (10%-50%) | *** (>50%) |
| CN(C1=N/C(=C\c2ccc3[nH]cnc3c2)C(=O)N1)c1ccccc1 [Example 30, (Z)-5-((1H-benzo[d]imidazol-5-yl)methylene)-2-(methyl(phenyl)amino)-3,5-dihydro-4H-imidazol-4-one] | 1 to 10 | * (<10% growth relative to blank myocyte growth without compound added.) | * (<10% growth relative to blank myocyte growth without compound added.) | – |
| O=C1NC(Nc2ccccc2)=N/C1=C\c1cncs1 [Example 15, (Z)-2-(phenylamino)-5-(thiazol-5-ylmethylene)-3,5-dihydro-4H-imidazol-4-one] | > 10 | * (<10% growth relative to blank myocyte growth without compound added.) | ** (10%-50%) | – |
| Cn1cnc2cc(NC3=N/C(=C\c4ccc5ncsc5c4)C(=O)N3)ccc21 [Example 61, (Z)-5-(benzo[d]thiazol-6-ylmethylene)-2-((1-methyl-1H-benzo[d]imidazol-5-yl)amino)-3,5-dihydro-4H-imidazol-4-one] | < 0.1 | * (<10% growth relative to blank myocyte growth without compound added.) | ** (10%-50%) | – |
